Source: article PMC10507085, “Pharmacological inhibition of TBK1/IKKε blunts immunopathology in a murine model of SARS-CoV-2 infection” (Nature Communications, 2023)

Experiments:
Experiment in all cases: biochemical
Set-up in all cases: KINOMEscan competition binding, DNA-tagged kinase against immobilised ligand, qPCR read-out
AAK1 = AAK1 (Homo sapiens, UniProt Q2M2I8); conditions: read-out: Percent Control
BMPR1A = BMPR1A (Homo sapiens, UniProt P36894); conditions: read-out: Percent Control
CHUK = CHUK (Homo sapiens, UniProt O15111); conditions: read-out: Percent Control
CSNK1G1 = CSNK1G1 (Homo sapiens, UniProt Q9HCP0); conditions: read-out: Percent Control
DYRK2 = DYRK2 (Homo sapiens, UniProt Q92630)
Method in brief: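 Competition binding (KINOMEscan): compound competes with an immobilised ligand for DNA-tagged kinase, and bound kinase is quantified by qPCR. 11-point 3-fold serial dilution, prepared in DMSO at 100× and diluted to 1× final.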

EPHA4 = EPHA4 (Homo sapiens, UniProt P54764); conditions: read-out: Percent Control
FLT4 = FLT4 (Homo sapiens, UniProt P35916); conditions: read-out: Percent Control
KDR = KDR (Homo sapiens, UniProt P35968); conditions: read-out: Percent Control
KIT-autoinhibited = KIT-autoinhibited (Homo sapiens, UniProt P10721); conditions: read-out: Percent Control
MAPK7 = MAPK7 (Homo sapiens, UniProt Q13164); conditions: read-out: Percent Control
PDGFRA = PDGFRA (Homo sapiens, UniProt P16234); conditions: read-out: Percent Control
PIK3C2B = PIK3C2B (Homo sapiens, UniProt O00750); conditions: read-out: Percent Control
PIK3C3 = PIK3C3 (Homo sapiens, UniProt Q8NEB9); conditions: read-out: Percent Control
PIP5K1A = PIP5K1A (Homo sapiens, UniProt Q99755); conditions: read-out: Percent Control
PLK3 = PLK3 (Homo sapiens, UniProt Q9H4B4); conditions: read-out: Percent Control
PRKCI = PRKCI (Homo sapiens, UniProt P41743); conditions: read-out: Percent Control
PRKCQ = PRKCQ (Homo sapiens, UniProt Q04759); conditions: read-out: Percent Control
PTK6 = PTK6 (Homo sapiens, UniProt Q13882); conditions: read-out: Percent Control
STK38 = STK38 (Homo sapiens, UniProt Q15208); conditions: read-out: Percent Control
STK38L = STK38L (Homo sapiens, UniProt Q9Y2H1); conditions: read-out: Percent Control

Chain of DYRK2 (Q92630 whole entry): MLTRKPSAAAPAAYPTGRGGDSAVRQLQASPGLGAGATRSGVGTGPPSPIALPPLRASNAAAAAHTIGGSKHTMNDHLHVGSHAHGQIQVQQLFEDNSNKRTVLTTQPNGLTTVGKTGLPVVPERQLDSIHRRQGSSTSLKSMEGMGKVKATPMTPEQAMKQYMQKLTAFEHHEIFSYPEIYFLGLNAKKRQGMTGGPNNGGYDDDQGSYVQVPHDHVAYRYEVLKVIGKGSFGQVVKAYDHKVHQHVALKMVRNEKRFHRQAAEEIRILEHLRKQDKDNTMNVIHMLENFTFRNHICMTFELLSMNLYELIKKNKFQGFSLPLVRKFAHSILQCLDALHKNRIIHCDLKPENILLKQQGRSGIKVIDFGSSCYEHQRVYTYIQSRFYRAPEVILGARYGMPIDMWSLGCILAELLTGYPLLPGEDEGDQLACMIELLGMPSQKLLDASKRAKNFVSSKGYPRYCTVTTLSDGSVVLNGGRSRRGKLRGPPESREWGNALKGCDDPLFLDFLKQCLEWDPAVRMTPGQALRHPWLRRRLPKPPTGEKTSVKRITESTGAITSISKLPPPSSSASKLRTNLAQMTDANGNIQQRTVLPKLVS
Chain of CSNK1G1 (Q9HCP0 whole entry): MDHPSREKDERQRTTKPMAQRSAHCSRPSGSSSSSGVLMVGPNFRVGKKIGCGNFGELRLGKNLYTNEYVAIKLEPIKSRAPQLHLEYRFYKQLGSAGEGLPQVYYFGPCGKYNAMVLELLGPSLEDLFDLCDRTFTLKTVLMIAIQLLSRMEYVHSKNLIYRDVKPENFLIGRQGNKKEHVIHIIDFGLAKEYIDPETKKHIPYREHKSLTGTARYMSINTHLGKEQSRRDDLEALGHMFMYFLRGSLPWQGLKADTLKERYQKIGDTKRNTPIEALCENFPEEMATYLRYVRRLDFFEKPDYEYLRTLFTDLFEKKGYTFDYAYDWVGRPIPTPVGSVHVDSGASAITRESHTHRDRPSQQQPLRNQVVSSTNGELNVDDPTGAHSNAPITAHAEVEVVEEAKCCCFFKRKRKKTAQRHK
Chain of KDR (P35968 whole entry): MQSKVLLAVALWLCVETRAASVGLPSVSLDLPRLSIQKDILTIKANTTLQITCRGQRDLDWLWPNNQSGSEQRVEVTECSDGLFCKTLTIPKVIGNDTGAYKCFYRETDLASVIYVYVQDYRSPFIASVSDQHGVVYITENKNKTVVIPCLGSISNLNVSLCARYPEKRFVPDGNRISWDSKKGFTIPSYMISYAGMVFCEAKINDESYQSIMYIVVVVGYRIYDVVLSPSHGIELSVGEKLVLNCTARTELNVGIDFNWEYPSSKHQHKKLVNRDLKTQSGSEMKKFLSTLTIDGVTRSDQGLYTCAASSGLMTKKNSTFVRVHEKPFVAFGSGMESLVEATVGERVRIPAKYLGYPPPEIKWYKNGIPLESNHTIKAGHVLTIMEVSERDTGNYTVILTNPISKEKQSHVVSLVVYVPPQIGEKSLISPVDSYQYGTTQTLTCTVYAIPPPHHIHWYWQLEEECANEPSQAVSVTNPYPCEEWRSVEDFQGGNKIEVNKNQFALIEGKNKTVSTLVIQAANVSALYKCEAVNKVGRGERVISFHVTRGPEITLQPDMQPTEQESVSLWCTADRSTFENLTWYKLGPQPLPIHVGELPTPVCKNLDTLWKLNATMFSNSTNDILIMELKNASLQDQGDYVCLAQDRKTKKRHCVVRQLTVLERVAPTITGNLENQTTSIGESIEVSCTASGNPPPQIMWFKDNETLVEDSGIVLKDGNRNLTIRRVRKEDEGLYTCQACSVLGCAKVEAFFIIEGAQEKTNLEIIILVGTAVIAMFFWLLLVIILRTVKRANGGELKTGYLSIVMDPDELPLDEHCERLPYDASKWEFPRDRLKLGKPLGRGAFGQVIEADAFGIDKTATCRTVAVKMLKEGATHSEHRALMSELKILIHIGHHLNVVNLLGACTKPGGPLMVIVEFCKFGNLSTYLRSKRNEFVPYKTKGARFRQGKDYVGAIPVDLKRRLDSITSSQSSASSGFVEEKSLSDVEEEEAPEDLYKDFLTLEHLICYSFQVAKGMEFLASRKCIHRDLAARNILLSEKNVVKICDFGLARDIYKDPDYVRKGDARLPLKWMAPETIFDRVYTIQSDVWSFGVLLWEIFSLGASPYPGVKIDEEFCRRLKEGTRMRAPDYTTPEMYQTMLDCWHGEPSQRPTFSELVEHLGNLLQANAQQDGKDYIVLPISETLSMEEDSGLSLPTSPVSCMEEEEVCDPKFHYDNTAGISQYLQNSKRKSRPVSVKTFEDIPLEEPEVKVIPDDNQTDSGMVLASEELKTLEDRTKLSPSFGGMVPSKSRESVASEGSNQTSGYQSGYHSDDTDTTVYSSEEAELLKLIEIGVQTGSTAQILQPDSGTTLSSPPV
Chain of PLK3 (Q9H4B4 whole entry): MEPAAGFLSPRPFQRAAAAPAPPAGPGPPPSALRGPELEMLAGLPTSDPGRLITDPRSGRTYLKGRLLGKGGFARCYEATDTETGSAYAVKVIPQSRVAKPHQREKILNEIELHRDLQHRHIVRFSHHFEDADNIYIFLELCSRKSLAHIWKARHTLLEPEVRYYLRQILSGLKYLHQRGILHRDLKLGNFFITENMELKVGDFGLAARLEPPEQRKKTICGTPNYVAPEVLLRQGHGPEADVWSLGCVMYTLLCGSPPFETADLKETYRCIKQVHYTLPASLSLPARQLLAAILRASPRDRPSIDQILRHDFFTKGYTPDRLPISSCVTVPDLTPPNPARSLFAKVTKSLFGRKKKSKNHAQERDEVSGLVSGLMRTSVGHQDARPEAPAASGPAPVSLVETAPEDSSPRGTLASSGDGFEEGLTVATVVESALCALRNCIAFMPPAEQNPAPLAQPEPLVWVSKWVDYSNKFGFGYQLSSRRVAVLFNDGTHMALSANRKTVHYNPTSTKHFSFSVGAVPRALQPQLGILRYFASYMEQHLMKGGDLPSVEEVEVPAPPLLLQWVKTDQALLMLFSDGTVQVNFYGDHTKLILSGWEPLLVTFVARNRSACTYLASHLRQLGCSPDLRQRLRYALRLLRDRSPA
Chain of FLT4 (P35916 whole entry): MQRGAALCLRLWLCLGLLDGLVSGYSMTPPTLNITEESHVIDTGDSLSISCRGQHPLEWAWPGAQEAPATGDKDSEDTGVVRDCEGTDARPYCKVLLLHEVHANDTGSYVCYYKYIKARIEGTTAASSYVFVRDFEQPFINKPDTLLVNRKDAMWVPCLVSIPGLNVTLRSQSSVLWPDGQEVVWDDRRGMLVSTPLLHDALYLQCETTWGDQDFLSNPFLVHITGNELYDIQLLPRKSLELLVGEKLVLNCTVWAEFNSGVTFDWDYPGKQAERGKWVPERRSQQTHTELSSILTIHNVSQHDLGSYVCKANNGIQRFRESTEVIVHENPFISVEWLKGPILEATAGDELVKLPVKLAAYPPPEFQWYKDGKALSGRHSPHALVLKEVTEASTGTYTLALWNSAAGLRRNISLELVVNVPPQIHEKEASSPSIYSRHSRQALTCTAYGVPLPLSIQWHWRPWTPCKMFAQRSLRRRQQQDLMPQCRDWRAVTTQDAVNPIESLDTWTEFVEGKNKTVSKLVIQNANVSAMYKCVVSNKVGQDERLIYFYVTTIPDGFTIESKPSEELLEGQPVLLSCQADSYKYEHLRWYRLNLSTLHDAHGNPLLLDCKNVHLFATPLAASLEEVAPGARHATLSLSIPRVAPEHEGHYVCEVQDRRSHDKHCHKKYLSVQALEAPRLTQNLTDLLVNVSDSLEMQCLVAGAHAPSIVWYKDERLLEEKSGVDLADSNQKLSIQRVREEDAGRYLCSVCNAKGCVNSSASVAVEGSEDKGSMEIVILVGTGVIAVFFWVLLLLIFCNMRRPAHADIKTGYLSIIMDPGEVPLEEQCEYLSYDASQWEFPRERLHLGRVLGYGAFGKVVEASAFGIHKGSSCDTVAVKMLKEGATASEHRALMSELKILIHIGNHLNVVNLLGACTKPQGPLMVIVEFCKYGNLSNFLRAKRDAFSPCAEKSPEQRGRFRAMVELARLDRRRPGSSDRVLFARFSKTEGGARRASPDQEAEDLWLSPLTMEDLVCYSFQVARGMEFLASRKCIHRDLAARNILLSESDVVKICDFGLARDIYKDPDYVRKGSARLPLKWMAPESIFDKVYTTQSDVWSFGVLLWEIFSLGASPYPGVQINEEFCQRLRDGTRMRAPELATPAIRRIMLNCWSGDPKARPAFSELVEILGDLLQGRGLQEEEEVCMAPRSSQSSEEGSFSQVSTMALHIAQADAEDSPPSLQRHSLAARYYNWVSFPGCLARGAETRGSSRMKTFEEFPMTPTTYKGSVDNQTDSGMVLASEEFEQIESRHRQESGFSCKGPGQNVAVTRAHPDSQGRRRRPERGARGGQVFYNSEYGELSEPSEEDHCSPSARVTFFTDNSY
Chain of PRKCI (P41743 whole entry): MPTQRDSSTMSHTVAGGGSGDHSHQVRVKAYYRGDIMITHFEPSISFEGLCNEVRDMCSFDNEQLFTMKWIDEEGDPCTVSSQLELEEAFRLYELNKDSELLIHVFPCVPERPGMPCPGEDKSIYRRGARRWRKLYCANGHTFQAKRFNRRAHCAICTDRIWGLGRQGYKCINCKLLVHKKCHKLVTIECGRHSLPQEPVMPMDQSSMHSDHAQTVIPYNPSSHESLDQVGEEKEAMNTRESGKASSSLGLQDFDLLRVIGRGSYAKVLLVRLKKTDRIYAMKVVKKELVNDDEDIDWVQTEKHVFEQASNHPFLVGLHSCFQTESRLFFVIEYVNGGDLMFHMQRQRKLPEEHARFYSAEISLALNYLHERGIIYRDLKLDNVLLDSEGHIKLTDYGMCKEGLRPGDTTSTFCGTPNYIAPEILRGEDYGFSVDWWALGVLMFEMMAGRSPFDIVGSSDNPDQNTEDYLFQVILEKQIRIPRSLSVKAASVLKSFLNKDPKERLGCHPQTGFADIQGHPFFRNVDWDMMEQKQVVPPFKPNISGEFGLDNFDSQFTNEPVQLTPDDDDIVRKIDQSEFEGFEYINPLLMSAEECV

Structure (SMILES): Oc1ccc(C2=Cc3ccc(O)cc3OC2)cc1 [compound 1, idronoxil]
- remaining binding at 10 µM (AAK1): 61%
- remaining binding at 10 µM (BMPR1A): 89%
- remaining binding at 10 µM (CHUK): 81%
- remaining binding at 10 µM (CSNK1G1): 95%
- Kd (DYRK2): 2700 nM
- remaining binding at 10 µM (DYRK2; read-out: Percent Control): 11%
- remaining binding at 10 µM (EPHA4): 84%
- remaining binding at 10 µM (FLT4): 100%
- remaining binding at 10 µM (KDR): 61%
- remaining binding at 10 µM (KIT-autoinhibited): 60%
- remaining binding at 10 µM (MAPK7): 90%
- remaining binding at 10 µM (PDGFRA): 29%
- remaining binding at 10 µM (PIK3C2B): 83%
- remaining binding at 10 µM (PIK3C3): 34%
- remaining binding at 10 µM (PIP5K1A): 75%
- remaining binding at 10 µM (PLK3): 100%
- remaining binding at 10 µM (PRKCI): 70%
- remaining binding at 10 µM (PRKCQ): 73%
- remaining binding at 10 µM (PTK6): 100%
- remaining binding at 10 µM (STK38): 68%
- remaining binding at 10 µM (STK38L): 92%
